For test [1], the system named is S. aureus DSM 20231. Nature of the test: fitness (endpoint OD595 vs no drug) (fraction); higher = more growth. Summed up:
(§1)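 Fitness is computed from the optical density at which cultures reach stationary phase, divided by the robust mean of no-drug control wells. Any value above 1 is set to 1. Cultures started at OD595 0.01 in 384-well plates with TSB, LB Lennox or CY at 37 °C, and OD595 was read every 30 min for 14 h against a first-reading background.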

Another test has as its system S. aureus Newman. Described as above. Summed up: as §1
Another test relates to S. pneumoniae D39V. Described as above. Summed up:
as §1

Test [2] concerns S. aureus DSM 20231. As to the kind of experiment: Bliss interaction score (quartile over a dose matrix) (fitness difference); higher = more antagonism (negative = synergy). Summed up: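 Quartiles of the Bliss score were taken over technical, biological and donor/recipient replicates. That score is observed fitness minus the product of the single-drug fitness values, which were inferred from combination data. Fitness itself is OD595 at entry into stationary phase divided by the plate's robust no-drug mean, with a cap at 1.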

The mark [3] stands for this setting: first compound 0.0156 µg/mL, partner 0.0625 µg/mL.
Where [4] appears, read: first compound 0.0156 µg/mL, partner 0.125 µg/mL.
Where [5] appears, read: first compound 0.0156 µg/mL, partner 0.25 µg/mL.
[6] abbreviates: first compound 0.0312 µg/mL, partner 0.0625 µg/mL.
The mark [7] stands for this setting: first compound 0.0312 µg/mL, partner 0.125 µg/mL.
Where [8] appears, read: first compound 0.0312 µg/mL, partner 0.25 µg/mL.
Setting [9] is: first compound 0.0625 µg/mL, partner 0.0625 µg/mL.
The mark [10] stands for this setting: first compound 0.0625 µg/mL, partner 0.125 µg/mL.
The mark [11] stands for this setting: first compound 0.0625 µg/mL, partner 0.25 µg/mL.

Our source for the fitness and Bliss interaction score values is the supplement of paper PMC10627819.

Structures are written as SMILES.
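For Bliss interaction score (quartile over a dose matrix) in this document: first quartile when negative (synergy) and third quartile when positive (antagonism).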

As to `CO[C@@]12[C@H](COC(N)=O)C3=C(C(=O)C(C)=C(N)C3=O)N1C[C@@H]1N[C@@H]12` [Mitomycin C] + Cn1nnc(-c2ccc(-c3ccc(N4C[C@H](CO)OC4=O)cc3F)cn2)n1 [Tedizolid], the fitness in the test with S. aureus DSM 20231 [1] (setting [3]) was found to be 0.701; with S. aureus DSM 20231 [1] (setting [4]), 0.652; in the test on S. aureus DSM 20231 [1] (setting [5]), 0.281; with S. aureus DSM 20231 [1] (setting [6]), 0.692; in the test on S. aureus DSM 20231 [1] (setting [7]), 0.597; in the test with S. aureus DSM 20231 [1] (setting [8]), 0.225. For the same compound, the fitness came to 0.511 in the test with S. aureus DSM 20231 [1] (setting [9]); 0.47 in the test with S. aureus DSM 20231 [1] (setting [10]); 0.2 in the test on S. aureus DSM 20231 [1] (setting [11]); 0.653 with S. aureus Newman (setting [3]); 0.612 in the test with S. aureus Newman (setting [4]); 0.177 in the test on S. aureus Newman (setting [5]). Also, the fitness came out at 0.61 in the test on S. aureus Newman (setting [6]); 0.587 with S. aureus Newman (setting [7]); 0.084 with S. aureus Newman (setting [8]); 0.519 with S. aureus Newman (setting [9]); 0.379 in the test on S. aureus Newman (setting [10]); 0.0559 with S. aureus Newman (setting [11]). Further, the fitness in the test on S. pneumoniae D39V (first compound 0.001075 µg/mL, partner 0.125 µg/mL) amounted to 0.76; in the test on S. pneumoniae D39V (first compound 0.001075 µg/mL, partner 0.25 µg/mL), 0.688; in the test on S. pneumoniae D39V (first compound 0.001075 µg/mL, partner 0.5 µg/mL), 0.313; in the test on S. pneumoniae D39V (first compound 0.002 µg/mL, partner 0.03125 µg/mL), 0.825; in the test with S. pneumoniae D39V (first compound 0.002 µg/mL, partner 0.0625 µg/mL), 0.821; in the test on S. pneumoniae D39V (first compound 0.002 µg/mL, partner 0.125 µg/mL) it was 0.749. Also, the fitness in the test with S. pneumoniae D39V (first compound 0.00215 µg/mL, partner 0.125 µg/mL) came out at 0.774; in the test with S. pneumoniae D39V (first compound 0.00215 µg/mL, partner 0.25 µg/mL) it was 0.687; in the test on S. pneumoniae D39V (first compound 0.00215 µg/mL, partner 0.5 µg/mL), 0.273; in the test on S. pneumoniae D39V (first compound 0.004 µg/mL, partner 0.03125 µg/mL), 0.745; in the test on S. pneumoniae D39V (first compound 0.004 µg/mL, partner 0.0625 µg/mL) it was 0.725; with S. pneumoniae D39V (first compound 0.004 µg/mL, partner 0.125 µg/mL) it was 0.686. The fitness stood at 0.687 with S. pneumoniae D39V (first compound 0.0043 µg/mL, partner 0.125 µg/mL); 0.617 in the test with S. pneumoniae D39V (first compound 0.0043 µg/mL, partner 0.25 µg/mL); 0.21 in the test with S. pneumoniae D39V (first compound 0.0043 µg/mL, partner 0.5 µg/mL); 0.635 with S. pneumoniae D39V (first compound 0.008 µg/mL, partner 0.03125 µg/mL); 0.611 with S. pneumoniae D39V (first compound 0.008 µg/mL, partner 0.0625 µg/mL); 0.518 in the test on S. pneumoniae D39V (first compound 0.008 µg/mL, partner 0.125 µg/mL).

`CO[C@@]12[C@H](COC(N)=O)C3=C(C(=O)C(C)=C(N)C3=O)N1C[C@@H]1N[C@@H]12` [MitomycinC] + CCCSc1nc(N[C@@H]2C[C@H]2c2ccc(F)c(F)c2)c2nnn([C@@H]3C[C@H](OCCO)[C@@H](O)[C@H]3O)c2n1 [Ticagrelor]: in the test on S. aureus DSM 20231 [2], the Bliss interaction score is -0.392.

Take `CO[C@@]12[C@H](COC(N)=O)C3=C(C(=O)C(C)=C(N)C3=O)N1C[C@@H]1N[C@@H]12` [MitomycinC] + CCCc1nc2c(C)cc(-c3nc4ccccc4n3C)cc2n1Cc1ccc(-c2ccccc2C(=O)O)cc1 [Telmisartan]: in the test on S. aureus DSM 20231 [2], the Bliss interaction score was -0.162.

Take `CO[C@@]12[C@H](COC(N)=O)C3=C(C(=O)C(C)=C(N)C3=O)N1C[C@@H]1N[C@@H]12` [MitomycinC] + COc1ccc2[nH]c([S+]([O-])Cc3ncc(C)c(OC)c3C)nc2c1 [Omeprazole]: the Bliss interaction score in the test with S. aureus DSM 20231 [2] stood at 0.169.

For the compound `CO[C@@]12[C@H](COC(N)=O)C3=C(C(=O)C(C)=C(N)C3=O)N1C[C@@H]1N[C@@H]12` [MitomycinC] + COc1ccc(CCN(C)CCCC(C#N)(c2ccc(OC)c(OC)c2)C(C)C)cc1OC [Verapamil], the Bliss interaction score with S. aureus DSM 20231 [2] was 0.195.

On to `CO[C@@]12[C@H](COC(N)=O)C3=C(C(=O)C(C)=C(N)C3=O)N1C[C@@H]1N[C@@H]12` [MitomycinC] + Cc1c(Cl)cccc1Nc1ccccc1C(=O)O [Tolfenamic], for which the Bliss interaction score in the test with S. aureus DSM 20231 [2] is -0.273.

On to `CC(C)(O)c1ccccc1CC[C@@H](SCC1(CC(=O)O)CC1)c1cccc(/C=C/c2ccc3ccc(Cl)cc3n2)c1` [Montelukast] + CCC(C)C1C(=O)NC(=C)C(=O)NC(C(=O)NC(CSCC(C(=O)N1)NC(=O)/C(=C/C)/NC(=O)C(C(C)CC)N)C(=O)NC2C(SCC(NC(=O)CNC(=O)C3CCCN3C2=O)C(=O)NC(CCCCN)C(=O)NC4C(SCC(NC(=O)CNC(=O)C(NC(=O)C(NC(=O)C(NC(=O)CNC4=O)C)CC(C)C)CCSC)C(=O)NC(CC(=O)N)C(=O)NC(CCSC)C(=O)NC(CCCCN)C(=O)NC5C(SCC6C(=O)NC(C(=O)NC(CSC(C(C(=O)N6)NC(=O)C(NC5=O)C)C)C(=O)NC(CO)C(=O)NC(C(C)CC)C(=O)NC(CC7=CN=CN7)C(=O)NC(C(C)C)C(=O)NC(=C)C(=O)NC(CCCCN)C(=O)O)CC8=CN=CN8)C)C)C)CC(C)C [Nisin], for which the Bliss interaction score in the test with S. aureus DSM 20231 [2] (main component drawn) was 0.297.
